Test results as given in the Deep4Chem optical property database.

Assay: solvent given as SMILES
[1] = in O=P(c1ccccc1)(c1ccccc1)c1ccc2oc3ccc(P(=O)(c4ccccc4)c4ccccc4)cc3c2c1

C[Si](C)(C)C#Cc1ccc2c3cccc4cccc(c5cccc1c52)c43
fluorescence lifetime (in C1CCCCC1): 4.2 ns

CCOC(=O)c1ccc2c(c1)[nH]c1c3ccc(C(=O)OCC)cc3[se]c21
fluorescence lifetime (in CCCO): 0.15 ns

COc1ccc(/C=C/C=C/C=C/c2ccc([N+](=O)[O-])cc2)cc1
fluorescence lifetime (in C1CCOC1): 1.7 ns | fluorescence lifetime (in C1COCCO1): 1.9 ns | fluorescence lifetime (in CC1CCCCC1): 0.7 ns | fluorescence lifetime (in Cc1ccccc1): 1.5 ns

CC(=O)c1ccc(-c2nc3ccc(N(C)C)c(Br)c3s2)cc1
fluorescence lifetime (in C1CCCCC1): 0.1 ns

Cc1ccc2ccccc2c1
fluorescence lifetime (in C1CCCCC1): 114 ns

CC1=C(c2ccc(N(c3ccccc3)c3ccccc3)cc2)C(C)=[N+]2C1=C(c1c(-c3ccccn3)nc3ccccn13)c1c(C)c(-c3ccc(N(c4ccccc4)c4ccccc4)cc3)c(C)n1[B-]2(F)F
fluorescence lifetime (in ClCCl): 0.3 ns

c1ccc(-c2nc(-c3ccccc3)nc(-c3ccc(-n4c5ccccc5c5cc6c(cc54)c4ccccc4n6-c4ccccc4)cc3)n2)cc1
fluorescence lifetime [1]: 13.4 ns

COc1nc(Nc2ccc3cc4ccccc4cc3c2)nc(OC)n1
fluorescence lifetime (in C1COCCO1): 12.2 ns | fluorescence lifetime (in CCOC(C)=O): 8.2 ns

CCCC1(CCC)c2cc(C=C(C#Cc3ccccc3)C#Cc3ccccc3)ccc2-c2ccc(C=C(C#Cc3ccccc3)C#Cc3ccccc3)cc21
fluorescence lifetime (in ClC(Cl)Cl): 0.6 ns

CC(C)(C)c1ccc2c(c1)c1cc(C(C)(C)C)ccc1n2-c1ccc2c(c1)C(=O)c1ccc(-n3c4ccc(C(C)(C)C)cc4c4cc(C(C)(C)C)ccc43)cc1C2=O
fluorescence lifetime (in Cc1ccccc1): 7.5 ns | fluorescence lifetime (in c1ccc2c(c1)c1ccccc1n2-c1ccc(-c2ccc(-n3c4ccccc4c4ccccc43)cc2)cc1): 10.4 ns

CCCCC(CC)COc1ccc2nc(-c3ccc(-c4ccc(OC)cc4)s3)sc2c1 (stereo not drawn)
fluorescence lifetime (in ClCCl): 1.52 ns

Oc1ccc(Br)cc1-c1nc2c(c3c1-c1ccccc1CC3)-c1ccccc1CC2
fluorescence lifetime (in ClCCl): 1.94 ns

Cc1ccc(C(=O)/N=c2\oc3cccc4c5c(-c6ccccc6)oc6cccc(c(c2-c2ccccc2)c34)c65)cc1
fluorescence lifetime (in ClC(Cl)Cl): 2.1 ns

c1ccc(N(c2ccccc2)c2ccc3c4cccc5c(N(c6ccccc6)c6ccccc6)ccc(c6cccc2c63)c54)cc1
fluorescence lifetime (in ClCCl): 4.71 ns

COc1cc2c(cc1/C=C/C(=C(C#N)C#N)c1ccccc1)c1ccccc1n2C
fluorescence lifetime (in C1CCOC1): 7.35 ns | fluorescence lifetime (in CC#N): 7.64 ns | fluorescence lifetime (in CCO): 5.52 ns | fluorescence lifetime (in CCOC(C)=O): 6.74 ns | fluorescence lifetime (in CN(C)C=O): 7.2 ns | fluorescence lifetime (in CS(C)=O): 9.07 ns | fluorescence lifetime (in Cc1ccccc1): 7.98 ns | fluorescence lifetime (in ClC(Cl)Cl): 8.11 ns | fluorescence lifetime (in ClCCl): 6.44 ns

Cc1cc(C)c2c(c1)c1cc(C)cc(C)c1n2-c1ccc2c(c1)Sc1cc3c(cc1B2c1c(C(C)C)cc(C(C)C)cc1C(C)C)B(c1c(C(C)C)cc(C(C)C)cc1C(C)C)c1ccccc1S3
fluorescence lifetime (in Cc1ccccc1): 0.65 ns | fluorescence lifetime [1]: 2 ns

O=C([O-])c1c2ccccc2c(C(=O)[O-])c2ccccc12
fluorescence lifetime (in CN(C)C=O): 2.2 ns

c1ccc(N2c3ccc4ccccc4c3-c3c4ccccc4nc[n+]3[B-]2(c2ccccc2)c2ccccc2)cc1
fluorescence lifetime (in C1CCC2CCCCC2C1): 3.42 ns | fluorescence lifetime (in C1CCCCC1): 3.43 ns | fluorescence lifetime (in C1CCOC1): 0.54 ns | fluorescence lifetime (in CC#N): 0.21 ns | fluorescence lifetime (in CC(C)=O): 0.21 ns | fluorescence lifetime (in CCCCCC): 3.4 ns | fluorescence lifetime (in CCOC(C)=O): 0.57 ns | fluorescence lifetime (in Cc1ccccc1): 1.56 ns | fluorescence lifetime (in ClC(Cl)Cl): 0.49 ns

COc1ccc2c(c1)CCC1=C(C#Cc3ccc(Cl)cc3)O[B-](F)(F)[O+]=C12
fluorescence lifetime (in ClCCl): 2.53 ns

CCN(CC)c1ccc2c(-c3ccccc3C(=O)O)c3c([o+]c2c1)/C(=C/Nc1ccccc1)CCC3
fluorescence lifetime (in CCO): 5.19 ns | fluorescence lifetime (in ClC(Cl)Cl): 3.16 ns | fluorescence lifetime (in ClCCl): 5.8 ns

c1ccc2c(c1)[nH]c1ncccc12
fluorescence lifetime (in CC#N): 13.3 ns | fluorescence lifetime (in CCCCCC): 9.1 ns

Cc1cccc2[n+]1[B-](F)(F)n1c(c3cccc4cccc1c43)=N2
fluorescence lifetime (in ClCCl): 7.1 ns

Cc1ccc(C2=Nc3cccc4[n+]3[B-](c3ccccc3)(N2)NC(c2ccc(C)cc2)=N4)cc1
fluorescence lifetime (in ClCCl): 2.6 ns

CC(C)c1ccc(/C=C/c2nc3ccc(N(C)C)cc3s2)cc1
fluorescence lifetime (in C1CCCCC1): 2.04 ns | fluorescence lifetime (in CC#N): 3.27 ns

C(#Cc1ccccc1)C(C#Cc1ccccc1)=Cc1ccc(-c2ccc(C=C(C#Cc3ccccc3)C#Cc3ccccc3)cc2)cc1
fluorescence lifetime (in ClC(Cl)Cl): 0.7 ns

c1ccc(-c2nc(-c3ccccc3)nc(-c3ccc(N4c5ccccc5C5(c6ccccc6-c6ccccc65)c5ccccc54)cc3)n2)cc1
fluorescence lifetime (in O=P(c1ccccc1)(c1ccccc1)c1ccccc1Oc1ccccc1P(=O)(c1ccccc1)c1ccccc1): 33 ns

C[Si]1(C)c2ccc(C#Cc3ccccc3)cc2C=Cc2cc(C#Cc3ccccc3)ccc21
fluorescence lifetime (in ClCCl): 3.8 ns

CC(C)(C)[Si](C)(C)C#CC1=CC2=c3cc(C#C[Si](C)(C)C(C)(C)C)c4nc(C(F)(F)C(F)(F)C(F)(F)F)nc5c(C#C[Si](C)(C)C(C)(C)C)cc(c3c54)C3=CC(C#C[Si](C)(C)C(C)(C)C)=C4N=C(C(F)(F)C(F)(F)C(F)(F)F)N=C1C4C32 (stereo not drawn)
fluorescence lifetime (in C1CCOC1): 2.1 ns

c1ccc2c(c1)ncc1ccc3cnc4ccccc4c3c12
fluorescence lifetime (in CC#N): 6.3 ns

Fc1c(F)c(-n2c3ccccc3c3ccccc32)c(F)c(-n2c3ccccc3c3ccccc32)c1-c1nnc(-c2ccccc2)o1
fluorescence lifetime (in Cc1ccccc1): 4.8 ns

CCCCCCCCOC(=O)c1ccc(-c2cc3ccc4cc(-c5ccc(C(=O)OCCCCCCCC)cc5)cc5ccc(c2)c3c45)cc1
fluorescence lifetime (in Cc1ccccc1): 49 ns

CN(C)c1ccc2cc3ccc(N(C)C)cc3nc2c1
fluorescence lifetime (in O): 2 ns
